{"source": "the supplement of paper PMC10307832", "test_in_all_cases": "relative viability (nuclei count vs DMSO), 5 days (fraction); higher = more cells survive", "key": {"A549": {"test_system": "A549", "summary_of_the_method": "(§1)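 Relative viability was taken as the ratio of nuclei in treated wells to nuclei in vehicle wells. Lung cancer cell lines in 1536-well plates received compounds by pin tool one day after seeding, either one drug alone or a fixed anchor-drug dose plus five library-drug doses (not always all listed) in √10 steps. Nuclei were counted on 4× images after 5 days of treatment, and values are medians of duplicate plates.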"}, "NCI-H1651": {"test_system": "NCI-H1651", "summary_of_the_method": "as §1"}, "NCI-H1944": {"test_system": "NCI-H1944", "summary_of_the_method": "as §1"}, "NCI-H1648": {"test_system": "NCI-H1648", "summary_of_the_method": "as §1"}, "NCI-H650": {"test_system": "NCI-H650", "summary_of_the_method": "as §1"}, "NCI-H520": {"test_system": "NCI-H520", "summary_of_the_method": "as §1"}, "RERF-LC-KJ": {"test_system": "RERF-LC-KJ", "summary_of_the_method": "as §1"}, "NCI-H838": {"test_system": "NCI-H838", "summary_of_the_method": "as §1"}, "IA-LM": {"test_system": "IA-LM", "summary_of_the_method": "as §1"}}}
{"smiles": "O=c1cc(-c2cccc3c2Sc2ccccc2S3)oc(N2CCOCC2)c1", "note": "+ Nc1ncn([C@H]2C[C@H](O)[C@@H](CO)O2)c(=O)n1 [Decitabine] (partner 2 µM)", "values": [{"measurement": "relative viability", "setting": "A549; first compound 0.08 µM", "result": 0.259}, {"measurement": "relative viability", "setting": "A549; first compound 0.253 µM", "result": 0.325}, {"measurement": "relative viability", "setting": "A549; first compound 0.8 µM", "result": 0.263}, {"measurement": "relative viability", "setting": "A549; first compound 2.53 µM", "result": 0.106}, {"measurement": "relative viability", "setting": "A549; first compound 8 µM", "result": 0.334}, {"measurement": "relative viability", "setting": "NCI-H1651; first compound 0.08 µM", "result": 0.575}, {"measurement": "relative viability", "setting": "NCI-H1651; first compound 0.253 µM", "result": 0.766}, {"measurement": "relative viability", "setting": "NCI-H1651; first compound 0.8 µM", "result": 0.617}, {"measurement": "relative viability", "setting": "NCI-H1651; first compound 2.53 µM", "result": 0.555}, {"measurement": "relative viability", "setting": "NCI-H1651; first compound 8 µM", "result": 0.628}, {"measurement": "relative viability", "setting": "NCI-H1944; first compound 0.08 µM", "result": 0.406}, {"measurement": "relative viability", "setting": "NCI-H1944; first compound 0.253 µM", "result": 0.448}, {"measurement": "relative viability", "setting": "NCI-H1944; first compound 0.8 µM", "result": 0.457}, {"measurement": "relative viability", "setting": "NCI-H1944; first compound 2.53 µM", "result": 0.432}, {"measurement": "relative viability", "setting": "NCI-H1944; first compound 8 µM", "result": 0.468}, {"measurement": "relative viability", "setting": "NCI-H1648; first compound 0.253 µM", "result": 0.501}, {"measurement": "relative viability", "setting": "NCI-H1648; first compound 0.8 µM", "result": 0.553}, {"measurement": "relative viability", "setting": "NCI-H1648; first compound 8 µM", "result": 0.54}, {"measurement": "relative viability", "setting": "NCI-H650; first compound 0.08 µM", "result": 0.317}, {"measurement": "relative viability", "setting": "NCI-H650; first compound 0.253 µM", "result": 0.352}, {"measurement": "relative viability", "setting": "NCI-H650; first compound 0.8 µM", "result": 0.513}, {"measurement": "relative viability", "setting": "NCI-H650; first compound 2.53 µM", "result": 0.322}, {"measurement": "relative viability", "setting": "NCI-H650; first compound 8 µM", "result": 0.29}, {"measurement": "relative viability", "setting": "NCI-H520; first compound 0.08 µM", "result": 0.518}, {"measurement": "relative viability", "setting": "NCI-H520; first compound 0.253 µM", "result": 0.623}, {"measurement": "relative viability", "setting": "NCI-H520; first compound 0.8 µM", "result": 0.577}, {"measurement": "relative viability", "setting": "NCI-H520; first compound 2.53 µM", "result": 0.499}, {"measurement": "relative viability", "setting": "NCI-H520; first compound 8 µM", "result": 0.548}, {"measurement": "relative viability", "setting": "RERF-LC-KJ; first compound 0.08 µM", "result": 0.643}, {"measurement": "relative viability", "setting": "RERF-LC-KJ; first compound 0.253 µM", "result": 0.818}, {"measurement": "relative viability", "setting": "RERF-LC-KJ; first compound 0.8 µM", "result": 0.709}, {"measurement": "relative viability", "setting": "RERF-LC-KJ; first compound 2.53 µM", "result": 0.655}, {"measurement": "relative viability", "setting": "RERF-LC-KJ; first compound 8 µM", "result": 0.676}, {"measurement": "relative viability", "setting": "NCI-H838; first compound 0.08 µM", "result": 0.471}, {"measurement": "relative viability", "setting": "NCI-H838; first compound 0.253 µM", "result": 0.519}, {"measurement": "relative viability", "setting": "NCI-H838; first compound 0.8 µM", "result": 0.457}, {"measurement": "relative viability", "setting": "NCI-H838; first compound 2.53 µM", "result": 0.452}, {"measurement": "relative viability", "setting": "NCI-H838; first compound 8 µM", "result": 0.497}]}
{"smiles": "O=c1cc(N2CCOCC2)oc2c(-c3cccc4c3sc3ccccc34)cccc12", "note": "+ O=C(CCCCCCC(=O)Nc1ccccc1)NO [Vorinostat] (partner 1 µM)", "values": [{"measurement": "relative viability", "setting": "NCI-H1651; first compound 0.01 µM", "result": 0.55}, {"measurement": "relative viability", "setting": "NCI-H1651; first compound 0.03162 µM", "result": 0.556}, {"measurement": "relative viability", "setting": "NCI-H1651; first compound 0.1 µM", "result": 0.528}, {"measurement": "relative viability", "setting": "NCI-H1651; first compound 0.3162 µM", "result": 0.567}, {"measurement": "relative viability", "setting": "NCI-H1651; first compound 1 µM", "result": 0.489}, {"measurement": "relative viability", "setting": "NCI-H1944; first compound 0.01 µM", "result": 0.529}, {"measurement": "relative viability", "setting": "NCI-H1944; first compound 0.03162 µM", "result": 0.612}, {"measurement": "relative viability", "setting": "NCI-H1944; first compound 0.1 µM", "result": 0.503}, {"measurement": "relative viability", "setting": "NCI-H1944; first compound 0.3162 µM", "result": 0.48}, {"measurement": "relative viability", "setting": "NCI-H1944; first compound 1 µM", "result": 0.616}, {"measurement": "relative viability", "setting": "NCI-H1648; first compound 0.03162 µM", "result": 0.577}, {"measurement": "relative viability", "setting": "NCI-H1648; first compound 0.1 µM", "result": 0.438}, {"measurement": "relative viability", "setting": "NCI-H1648; first compound 0.3162 µM", "result": 0.419}, {"measurement": "relative viability", "setting": "NCI-H1648; first compound 1 µM", "result": 0.689}, {"measurement": "relative viability", "setting": "NCI-H650; first compound 0.01 µM", "result": 0.537}, {"measurement": "relative viability", "setting": "NCI-H650; first compound 0.03162 µM", "result": 0.412}, {"measurement": "relative viability", "setting": "NCI-H650; first compound 0.3162 µM", "result": 0.496}, {"measurement": "relative viability", "setting": "NCI-H650; first compound 1 µM", "result": 0.402}, {"measurement": "relative viability", "setting": "NCI-H520; first compound 0.01 µM", "result": 0.775}, {"measurement": "relative viability", "setting": "NCI-H520; first compound 0.03162 µM", "result": 0.755}, {"measurement": "relative viability", "setting": "NCI-H520; first compound 0.1 µM", "result": 0.689}, {"measurement": "relative viability", "setting": "NCI-H520; first compound 0.3162 µM", "result": 0.728}, {"measurement": "relative viability", "setting": "NCI-H520; first compound 1 µM", "result": 0.794}, {"measurement": "relative viability", "setting": "IA-LM; first compound 0.01 µM", "result": 0.965}, {"measurement": "relative viability", "setting": "IA-LM; first compound 0.03162 µM", "result": 0.986}, {"measurement": "relative viability", "setting": "IA-LM; first compound 0.1 µM", "result": 0.907}, {"measurement": "relative viability", "setting": "IA-LM; first compound 0.3162 µM", "result": 0.901}, {"measurement": "relative viability", "setting": "IA-LM; first compound 1 µM", "result": 0.909}, {"measurement": "relative viability", "setting": "RERF-LC-KJ; first compound 0.01 µM", "result": 0.76}, {"measurement": "relative viability", "setting": "RERF-LC-KJ; first compound 0.03162 µM", "result": 0.694}, {"measurement": "relative viability", "setting": "RERF-LC-KJ; first compound 0.1 µM", "result": 0.775}, {"measurement": "relative viability", "setting": "RERF-LC-KJ; first compound 0.3162 µM", "result": 0.64}, {"measurement": "relative viability", "setting": "RERF-LC-KJ; first compound 1 µM", "result": 0.707}, {"measurement": "relative viability", "setting": "NCI-H838; first compound 0.01 µM", "result": 0.752}, {"measurement": "relative viability", "setting": "NCI-H838; first compound 0.03162 µM", "result": 0.716}, {"measurement": "relative viability", "setting": "NCI-H838; first compound 0.1 µM", "result": 0.686}, {"measurement": "relative viability", "setting": "NCI-H838; first compound 0.3162 µM", "result": 0.657}, {"measurement": "relative viability", "setting": "NCI-H838; first compound 1 µM", "result": 0.698}]}
